This passage reports IC50 and remaining binding results from publication PMC5862592, “CDK8/19 inhibition induces premature G1/S transition and ATR-dependent cell death in prostate cancer cells” (Oncotarget, 2018).

The target of test [1] is T1, CDK19 (Homo sapiens, UniProt Q9BWU1).
T1 construct: GST-CDK19; with Cyclin C
The test is described as follows: TR-FRET ligand displacement assay (Kinase Tracer […], Tb-anti-GST); also KINOMEscan […] inhibition at […]. The class given is binding. Background: In TR-FRET formats the signal depends on donor and acceptor labels being close together.

Test [2] deals with T2, ABL1(M351T)-phosphorylated (Homo sapiens, UniProt P00519, M351T).
T2 construct: phosphorylated
The test is described as follows: biochemical. The conditions noted are these: read-out: Percent of Control (%). Further details: KINOMEscan active site-directed competition binding assay (DiscoveRx), 456 kinases, per cent of control at 300 nM. In short, it runs like this:
(§1)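 Active site-directed competition binding (KINOMEscan) across a 456-kinase panel, compounds tested at 300 nmol/L.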

The target of test [3] is T3, ABL1(T315I)-nonphosphorylated (Homo sapiens, UniProt P00519, T315I).
T3 construct: nonphosphorylated
The test is described as follows: biochemical. Further details: KINOMEscan active site-directed competition binding assay (DiscoveRx), 456 kinases, per cent of control at 300 nM. The note with it: read-out: Percent of Control (%). The procedure, abridged: as §1

The target of test [4] is T4, ABL1-phosphorylated (Homo sapiens, UniProt P00519).
T4 construct: phosphorylated
The test is described as follows: biochemical. Further details: KINOMEscan active site-directed competition binding assay (DiscoveRx), 456 kinases, per cent of control at 300 nM. The conditions noted are these: read-out: Percent of Control (%). The procedure, abridged: as §1

Test [5] concerns the target CDK9 (Homo sapiens, UniProt P50750). The test is described as follows: biochemical. Further details: KINOMEscan active site-directed competition binding assay (DiscoveRx), 456 kinases, per cent of control at 300 nM. The conditions noted are these: read-out: Percent of Control (%). In short, it runs like this:
as §1

Test [6] has as its target CSNK1G3 (Homo sapiens, UniProt Q9Y6M4). Nature of the test: biochemical. Further details: KINOMEscan active site-directed competition binding assay (DiscoveRx), 456 kinases, per cent of control at 300 nM. The conditions noted are these: read-out: Percent of Control (%). In short, it runs like this:
as §1

Test [7] deals with T5, DRAK2 (Homo sapiens, UniProt O94768).
T5 construct: gene STK17B
The test is described as follows: biochemical. Further details: KINOMEscan active site-directed competition binding assay (DiscoveRx), 456 kinases, per cent of control at 300 nM. The conditions noted are these: read-out: Percent of Control (%). The procedure, abridged: as §1

The target in test [8] is EPHA6 (Homo sapiens, UniProt Q9UF33). The test is described as follows: biochemical. Further details: KINOMEscan active site-directed competition binding assay (DiscoveRx), 456 kinases, per cent of control at 300 nM. The conditions noted are these: read-out: Percent of Control (%). The procedure, abridged:
as §1

Test [9] has as its target FGFR3(G697C) (Homo sapiens, UniProt P22607, G697C). The test is described as follows: biochemical. Further details: KINOMEscan active site-directed competition binding assay (DiscoveRx), 456 kinases, per cent of control at 300 nM. The note with it: read-out: Percent of Control (%). In short, it runs like this:
as §1

Test [10] addresses T6, IKK-epsilon (Homo sapiens, UniProt Q14164).
T6 construct: gene IKBKE
Nature of the test: biochemical. Further details: KINOMEscan active site-directed competition binding assay (DiscoveRx), 456 kinases, per cent of control at 300 nM. The note with it: read-out: Percent of Control (%). The procedure, abridged:
as §1

Test [11] addresses T7, JNK2 (Homo sapiens, UniProt P45984).
T7 construct: gene MAPK9
Nature of the test: biochemical. The note with it: read-out: Percent of Control (%). Further details: KINOMEscan active site-directed competition binding assay (DiscoveRx), 456 kinases, per cent of control at 300 nM. The procedure, abridged: as §1

Test [12] deals with T8, JNK3 (Homo sapiens, UniProt P53779).
T8 construct: gene MAPK10
Nature of the test: biochemical. The note with it: read-out: Percent of Control (%). Further details: KINOMEscan active site-directed competition binding assay (DiscoveRx), 456 kinases, per cent of control at 300 nM. In short, it runs like this: as §1

Test [13] has as its target KIT(D816V) (Homo sapiens, UniProt P10721, D816V). The test is described as follows: biochemical. Further details: KINOMEscan active site-directed competition binding assay (DiscoveRx), 456 kinases, per cent of control at 300 nM. The note with it: read-out: Percent of Control (%). In short, it runs like this: as §1
In test [14] the target is MAP4K3 (Homo sapiens, UniProt Q8IVH8). The test is described as follows: biochemical. Further details: KINOMEscan active site-directed competition binding assay (DiscoveRx), 456 kinases, per cent of control at 300 nM. The conditions noted are these: read-out: Percent of Control (%). In short, it runs like this: as §1
Test [15] concerns the target MAPKAPK5 (Homo sapiens, UniProt Q8IW41). The test is described as follows: biochemical. Further details: KINOMEscan active site-directed competition binding assay (DiscoveRx), 456 kinases, per cent of control at 300 nM. The conditions noted are these: read-out: Percent of Control (%). The procedure, abridged:
as §1

Test [16] has as its target T9, MEK2 (Homo sapiens, UniProt P36507).
T9 construct: gene MAP2K2
Nature of the test: biochemical. The conditions noted are these: read-out: Percent of Control (%). Further details: KINOMEscan active site-directed competition binding assay (DiscoveRx), 456 kinases, per cent of control at 300 nM. In short, it runs like this:
as §1

The target of test [17] is T10, MEK4 (Homo sapiens, UniProt P45985).
T10 construct: gene MAP2K4
Nature of the test: biochemical. Further details: KINOMEscan active site-directed competition binding assay (DiscoveRx), 456 kinases, per cent of control at 300 nM. The note with it: read-out: Percent of Control (%). In short, it runs like this: as §1

The target of test [18] is T11, PFPK5(P.falciparum) (Plasmodium falciparum, UniProt P61075).
T11 construct: gene MAL13P1.279
The test is described as follows: biochemical. Further details: KINOMEscan active site-directed competition binding assay (DiscoveRx), 456 kinases, per cent of control at 300 nM. The note with it: read-out: Percent of Control (%). The procedure, abridged:
as §1

Test [19] concerns the target PKN2 (Homo sapiens, UniProt Q16513). The test is described as follows: biochemical. The conditions noted are these: read-out: Percent of Control (%). Further details: KINOMEscan active site-directed competition binding assay (DiscoveRx), 456 kinases, per cent of control at 300 nM. In short, it runs like this: as §1
Test [20] concerns the target PLK3 (Homo sapiens, UniProt Q9H4B4). The test is described as follows: biochemical. Further details: KINOMEscan active site-directed competition binding assay (DiscoveRx), 456 kinases, per cent of control at 300 nM. The note with it: read-out: Percent of Control (%). In short, it runs like this: as §1
In test [21] the target is T12, CDK8 (Homo sapiens, UniProt P49336). Nature of the test: TR-FRET ligand displacement assay (Kinase Tracer […], Tb-anti-GST). Further details: GST-CDK8; with Cyclin C. The class given is binding.
For test [22], the target named is T1, CDK19. The test is described as follows: TR-FRET ligand displacement assay (Kinase Tracer […], Tb-anti-GST); also KINOMEscan […] inhibition at […]. The class given is binding. This is another data set of the same source.
Test [23] has as its target T12, CDK8. Described as above. Further details: GST-CDK8; with Cyclin C. The class given is binding.

The structures appear in SMILES notation. pIC50: −log10 of the molar value. Like-named read-outs stand apart in the source and are kept apart here.

Usually pIC50 stands for the IC50 on a negative log10 scale, so that one unit is a factor of ten. Read a high pIC50 as a low IC50.

CSNK1G3, sequence (Q9Y6M4 whole entry): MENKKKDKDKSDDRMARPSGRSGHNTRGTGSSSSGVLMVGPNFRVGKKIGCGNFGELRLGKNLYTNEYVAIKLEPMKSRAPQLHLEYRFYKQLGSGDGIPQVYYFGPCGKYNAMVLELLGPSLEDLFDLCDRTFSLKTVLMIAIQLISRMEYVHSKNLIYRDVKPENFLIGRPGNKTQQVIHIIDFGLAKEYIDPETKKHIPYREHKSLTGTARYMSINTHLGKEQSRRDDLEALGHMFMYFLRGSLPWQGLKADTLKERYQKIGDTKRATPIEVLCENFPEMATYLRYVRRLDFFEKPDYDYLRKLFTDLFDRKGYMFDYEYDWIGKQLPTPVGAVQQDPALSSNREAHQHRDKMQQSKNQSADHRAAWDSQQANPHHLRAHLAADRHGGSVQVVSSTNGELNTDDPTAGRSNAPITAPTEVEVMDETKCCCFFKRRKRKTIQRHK
T7 sequence (P45984 whole entry): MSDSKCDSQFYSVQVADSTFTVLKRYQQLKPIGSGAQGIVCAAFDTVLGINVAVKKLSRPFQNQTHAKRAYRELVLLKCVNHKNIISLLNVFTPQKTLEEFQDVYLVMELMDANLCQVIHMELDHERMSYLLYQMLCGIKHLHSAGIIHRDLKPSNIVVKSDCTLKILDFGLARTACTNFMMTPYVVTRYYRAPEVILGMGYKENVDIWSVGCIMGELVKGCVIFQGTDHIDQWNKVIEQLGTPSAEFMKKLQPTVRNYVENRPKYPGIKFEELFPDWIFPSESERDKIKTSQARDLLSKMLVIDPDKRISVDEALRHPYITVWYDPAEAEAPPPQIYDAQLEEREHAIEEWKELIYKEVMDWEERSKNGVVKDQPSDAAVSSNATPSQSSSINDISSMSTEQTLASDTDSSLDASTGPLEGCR
T9 sequence (P36507 whole entry): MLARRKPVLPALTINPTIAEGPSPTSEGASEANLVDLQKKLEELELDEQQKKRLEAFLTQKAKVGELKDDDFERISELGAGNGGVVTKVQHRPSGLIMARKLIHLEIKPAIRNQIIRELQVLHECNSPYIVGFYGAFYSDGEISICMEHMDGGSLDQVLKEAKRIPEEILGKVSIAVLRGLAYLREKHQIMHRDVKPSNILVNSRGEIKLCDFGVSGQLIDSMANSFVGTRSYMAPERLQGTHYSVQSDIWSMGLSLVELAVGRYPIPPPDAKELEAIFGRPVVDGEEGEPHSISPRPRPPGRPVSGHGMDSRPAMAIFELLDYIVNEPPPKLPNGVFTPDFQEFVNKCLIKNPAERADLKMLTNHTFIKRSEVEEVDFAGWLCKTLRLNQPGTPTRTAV
CDK9, sequence (P50750 whole entry): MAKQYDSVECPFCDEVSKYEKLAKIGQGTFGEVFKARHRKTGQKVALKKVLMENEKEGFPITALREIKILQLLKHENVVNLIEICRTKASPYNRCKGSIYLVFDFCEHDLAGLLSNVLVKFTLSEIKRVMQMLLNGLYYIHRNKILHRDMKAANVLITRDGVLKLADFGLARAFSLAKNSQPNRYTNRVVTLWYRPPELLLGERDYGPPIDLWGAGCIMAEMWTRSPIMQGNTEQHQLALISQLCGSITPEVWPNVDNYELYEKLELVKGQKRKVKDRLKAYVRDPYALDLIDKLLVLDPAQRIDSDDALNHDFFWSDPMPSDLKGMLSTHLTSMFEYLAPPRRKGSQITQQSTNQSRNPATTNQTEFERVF
PKN2, sequence (Q16513 whole entry): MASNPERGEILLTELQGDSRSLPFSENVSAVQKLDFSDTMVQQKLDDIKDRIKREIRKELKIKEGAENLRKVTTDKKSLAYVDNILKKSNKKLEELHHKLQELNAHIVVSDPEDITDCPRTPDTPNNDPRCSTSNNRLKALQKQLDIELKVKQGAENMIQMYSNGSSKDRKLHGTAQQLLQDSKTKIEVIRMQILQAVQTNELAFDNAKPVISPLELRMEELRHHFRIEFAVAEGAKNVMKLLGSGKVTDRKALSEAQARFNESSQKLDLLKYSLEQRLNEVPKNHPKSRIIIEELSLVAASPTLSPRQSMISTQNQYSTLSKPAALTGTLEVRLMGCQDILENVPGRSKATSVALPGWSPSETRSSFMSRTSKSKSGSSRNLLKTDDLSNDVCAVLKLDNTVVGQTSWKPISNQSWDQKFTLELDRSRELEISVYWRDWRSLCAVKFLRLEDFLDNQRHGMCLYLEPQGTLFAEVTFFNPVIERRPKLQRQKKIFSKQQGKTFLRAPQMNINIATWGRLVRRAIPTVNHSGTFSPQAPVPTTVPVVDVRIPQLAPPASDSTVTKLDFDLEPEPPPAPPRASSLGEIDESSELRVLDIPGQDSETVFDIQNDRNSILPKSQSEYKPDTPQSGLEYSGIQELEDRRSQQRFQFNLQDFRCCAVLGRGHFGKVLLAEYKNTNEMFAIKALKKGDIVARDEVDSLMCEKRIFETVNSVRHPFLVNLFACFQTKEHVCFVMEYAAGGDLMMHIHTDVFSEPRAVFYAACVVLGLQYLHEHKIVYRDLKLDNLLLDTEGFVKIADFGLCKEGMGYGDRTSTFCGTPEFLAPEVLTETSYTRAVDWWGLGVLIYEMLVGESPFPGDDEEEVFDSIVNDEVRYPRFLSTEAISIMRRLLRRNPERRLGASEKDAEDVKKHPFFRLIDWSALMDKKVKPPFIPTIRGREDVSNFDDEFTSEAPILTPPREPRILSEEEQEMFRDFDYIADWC
T1 sequence (Q9BWU1 whole entry): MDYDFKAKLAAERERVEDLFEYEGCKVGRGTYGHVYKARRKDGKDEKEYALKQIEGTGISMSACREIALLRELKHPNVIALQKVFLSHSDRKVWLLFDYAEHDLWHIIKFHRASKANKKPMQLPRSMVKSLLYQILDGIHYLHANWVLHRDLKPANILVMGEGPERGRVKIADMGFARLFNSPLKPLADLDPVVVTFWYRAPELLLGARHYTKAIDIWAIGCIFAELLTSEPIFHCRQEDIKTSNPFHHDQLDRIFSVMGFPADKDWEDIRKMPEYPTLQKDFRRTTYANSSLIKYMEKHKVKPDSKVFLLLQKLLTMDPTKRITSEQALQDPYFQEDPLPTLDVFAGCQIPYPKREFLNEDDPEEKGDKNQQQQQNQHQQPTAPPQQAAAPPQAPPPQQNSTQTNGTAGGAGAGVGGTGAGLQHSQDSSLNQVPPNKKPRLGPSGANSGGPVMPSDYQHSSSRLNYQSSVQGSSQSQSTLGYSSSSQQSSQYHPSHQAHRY
T1 sequence (P24863 whole entry partner): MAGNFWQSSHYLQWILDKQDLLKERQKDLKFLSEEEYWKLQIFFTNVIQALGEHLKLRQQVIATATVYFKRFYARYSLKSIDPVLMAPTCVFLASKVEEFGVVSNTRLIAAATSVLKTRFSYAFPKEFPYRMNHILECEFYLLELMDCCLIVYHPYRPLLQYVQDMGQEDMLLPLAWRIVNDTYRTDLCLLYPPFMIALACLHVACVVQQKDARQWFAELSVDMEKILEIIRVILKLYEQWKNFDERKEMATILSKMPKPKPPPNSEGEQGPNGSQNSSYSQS
MAPKAPK5, sequence (Q8IW41 whole entry): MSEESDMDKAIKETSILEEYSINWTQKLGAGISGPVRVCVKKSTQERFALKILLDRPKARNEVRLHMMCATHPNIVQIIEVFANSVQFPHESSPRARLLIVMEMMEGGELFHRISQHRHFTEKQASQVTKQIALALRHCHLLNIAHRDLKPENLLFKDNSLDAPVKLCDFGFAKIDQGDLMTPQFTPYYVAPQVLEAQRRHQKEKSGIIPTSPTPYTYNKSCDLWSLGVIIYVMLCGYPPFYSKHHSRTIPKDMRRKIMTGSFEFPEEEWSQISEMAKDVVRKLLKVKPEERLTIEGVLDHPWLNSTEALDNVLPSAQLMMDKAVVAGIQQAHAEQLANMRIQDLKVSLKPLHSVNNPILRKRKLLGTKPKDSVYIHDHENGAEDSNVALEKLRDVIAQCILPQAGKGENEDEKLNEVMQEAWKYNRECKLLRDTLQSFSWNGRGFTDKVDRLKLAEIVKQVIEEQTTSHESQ
T8 sequence (P53779 whole entry): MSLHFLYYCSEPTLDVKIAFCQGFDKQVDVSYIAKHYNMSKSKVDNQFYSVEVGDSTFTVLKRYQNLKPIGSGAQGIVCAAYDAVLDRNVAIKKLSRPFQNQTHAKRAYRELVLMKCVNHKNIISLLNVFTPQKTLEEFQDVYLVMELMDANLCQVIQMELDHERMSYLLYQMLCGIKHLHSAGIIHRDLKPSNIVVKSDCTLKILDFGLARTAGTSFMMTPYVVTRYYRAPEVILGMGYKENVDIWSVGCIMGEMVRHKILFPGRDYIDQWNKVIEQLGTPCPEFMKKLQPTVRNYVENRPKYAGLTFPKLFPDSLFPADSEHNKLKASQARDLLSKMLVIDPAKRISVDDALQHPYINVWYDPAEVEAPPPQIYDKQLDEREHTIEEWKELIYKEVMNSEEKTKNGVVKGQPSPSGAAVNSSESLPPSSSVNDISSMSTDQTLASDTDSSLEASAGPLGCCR
T12 sequence (P49336 whole entry): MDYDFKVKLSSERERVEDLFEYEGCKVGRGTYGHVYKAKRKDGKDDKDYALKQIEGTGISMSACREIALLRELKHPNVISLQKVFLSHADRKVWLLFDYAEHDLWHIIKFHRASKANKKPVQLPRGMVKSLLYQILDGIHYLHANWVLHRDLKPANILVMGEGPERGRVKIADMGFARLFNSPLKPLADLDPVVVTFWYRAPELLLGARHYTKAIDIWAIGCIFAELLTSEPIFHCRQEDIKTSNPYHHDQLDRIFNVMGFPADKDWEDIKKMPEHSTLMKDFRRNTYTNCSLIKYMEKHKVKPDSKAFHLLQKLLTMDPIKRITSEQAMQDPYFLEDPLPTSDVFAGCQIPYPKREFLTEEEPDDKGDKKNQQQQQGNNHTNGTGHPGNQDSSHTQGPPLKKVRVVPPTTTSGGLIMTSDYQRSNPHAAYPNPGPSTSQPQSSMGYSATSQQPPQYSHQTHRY
T12 sequence (P24863 whole entry partner): as the sequence (P24863 whole entry partner) above

Consider `O=C(/C=C/c1cnccc1-c1ccc(F)cc1)Nc1ccc(CCc2nnco2)cc1` [T-418, (2E)-3-(4-(4-fluorophenyl)pyridin-3-yl)-N-(4-(2-(1,3,4-oxadiazol-2-yl)ethyl)phenyl)acrylamide], for which the figures for the pIC50 in test [1] and in [21] were 7.21 and 7.64, respectively. For the same compound, the remaining binding at 0.3 µM in [2] (sheet T-418) is 100%; in test [3] (sheet T-418), 100%; in [4] (sheet T-418), 89%; in test [5] (sheet T-418), 83%; in test [6] (sheet T-418), 100%; in test [7] (sheet T-418), 94%. Besides, the remaining binding at 0.3 µM came out at 100% in test [8] (sheet T-418); 66% in test [9] (sheet T-418); 100% in [10] (sheet T-418); 86% in test [11] (sheet T-418); 94% in test [12] (sheet T-418); 96% in test [13] (sheet T-418). The remaining binding at 0.3 µM in test [14] (sheet T-418) came out at 82%; in [15] (sheet T-418), 92%; in [16] (sheet T-418) it was 100%; in test [17] (sheet T-418), 100%; in test [18] (sheet T-418), 76%; in test [19] (sheet T-418), 95%. Moreover, in test [20] (sheet T-418), the remaining binding at 0.3 µM is 82%.

On to `Cc1ncccc1Oc1sc(C(N)=O)c2c1-c1c(cnn1C)CC2` [T-474, 1-methyl-8-((2-methylpyridin-3-yl)oxy)-4,5-dihydro-1H-thieno[3,4-g]indazole-6-carboxamide], for which the negative logarithm of the IC50 (pIC50) in test [22] was 8.72; in [23] it was 8.80. Also, the remaining binding at 0.3 µM was 100% in test [2]; 100% in [3]; 100% in test [4]; 80% in [5]; 100% in test [6]; 100% in [7]. In addition, the remaining binding at 0.3 µM in test [8] amounted to 100%; in [9], 59%; in test [10] it was 100%; in test [11], 87%; in test [12], 97%; in test [13], 94%. Further, the remaining binding at 0.3 µM in [14] is 100%; in test [15] it was 98%; in test [16], 100%; in test [17] it was 100%; in [18] it was 95%; in [19], 100%. The remaining binding at 0.3 µM in [20] worked out at 88%.
